Experimental data published in article PMC3767324, “Synthesis, Characterization, and BSA Binding Studies of Some New Benzamides Related to Schiff Base” (ISRN Organic Chemistry, 2013).
≈ marks a conversion by molar mass, not a printed value.

Columns and labels:
[1] = superoxide radical scavenging assay (NBT, xanthine-xanthine oxidase system); format: biochemical; conditions: NBT reduction, pH 7.8, 560 nm, three replicates
Procedure: Superoxide radical scavenging activity was measured as described by Kovala-Demertzi et al., (2004). The assay is based on the reduction of nitroblue tetrazolium (NBT) by superoxide ions generated by the xanthine-xanthine oxidase system (X–XO). The reaction system contained 0.2 mM xanthine and 0.6 mM NBT in 0.1 M phosphate buffer, pH 7.8. The tested compounds were dissolved in methanol. The reaction was started by addition of XO (0.07 U mL^−1), an activity which allowed to yield the absorbance change between 0.03 and 0.04 per minute, at 560 nm. The extent of NBT reduction was followed spectrophotometrically, by measuring the increase of the absorbance at 560 nm. All the experiments were replicated three times. The IC50 of each compound was defined as the concentration which inhibited 50% of the NBT reduction by O2 ^•− produced in the X–XO system.
Superoxide anion radical is normally initially formed, and its effects can be magnified because it produces other kinds of free radicals and oxidizing agents. The enzymatic superoxide anion radical was generated by the xanthine/xanthine oxidase reaction system. The production of superoxide was estimated by the nitroblue tetrazolium method. […] Differently, in the m-position, methoxy and hydroxyl groups act as an electron-withdrawing properties, ([…]), which are possible for providing a destabilizing effect.

[2] = DPPH free radical scavenging activity; conditions: DPPH 0.1 mM, absorbance at 517 nm; triplicate, mean ± SD
Procedure: The capacity to scavenge the stable free radical 2,2-diphenyl-1-picrylhydrazyl (DPPH) was monitored according to the Blois method. The test samples (10–100 μL) were mixed with 1 mL of DPPH (0.1 mM) solution and filled up with methanol to a final volume of 4 mL. Absorbance of the resulting solution was measured at 517 nm in a visible spectrophotometer (Model 166, Systronics, India). The free radical scavenging rate of the reaction solution was calculated as a percentage (%) of DPPH decolouration using the equation (1) I(%)=(Ablank−Asample/Ablank)×100, where A blank is the absorbance of the control reaction mixture excluding the test compounds, and A sample is the absorbance of the test compounds. Radical scavenging potential was expressed as IC50 value, which represents the sample concentration at which 50% of the DPPH radicals were scavenged. Tests were carried out in triplicate and the results were expressed as mean values ± standard deviations.
DPPH radical scavenging activity evaluation is a standard assay in antioxidant activity studies and offers a rapid technique for screening the radical scavenging activity of specific compounds [24]. The free radical scavenging activity of newly synthesized compounds was tested by their ability to bleach the stable radical DPPH. The activity was monitored by following the absorption at 517 nm in a visible spectrophotometer. In the presence of any free radical scavenger, this odd electron pairs up and causes the diminishing of absorption band which is proportional to the number of electrons taken up. The activity was studied at different concentrations for each compound. […] Resulting from a color change from purple to yellow the absorbance decreased when the antioxidant molecule can quench DPPH free radical through donation of hydrogen atom or by electron donating to form a stable DPPH molecule.

[3] = test system: Pseudomonas aeruginosa (NCIM 5029); experiment: minimum inhibitory concentration by dilution method; format: cell-based; conditions: Pseudomonas aeruginosa, NCIM5029; P. aeruginosa; dilution method; average of three replicates; read-out: MIC
Procedure: (§1) The in vitro antimicrobial screening effects of the compounds (3 and 5a–j) were individually tested against a panel of bacteria and fungi including Staphylococcus aureus (NCIM 5021), Bacillus subtilis (NCIM 2999), Pseudomonas aeruginosa (NCIM 5029), Escherichia coli (NCIM 2574), Candida. albicans (NCIM 3471), and Aspergillus flavus (NCIM 524). Microbial strains were cultured overnight at 37°C in nutrient and potato dextrose agar medium. All the pure microbial strains were obtained from National Chemical Laboratory (NCL), Pune, India.
(§2) The minimum inhibitory concentration of the synthesized compounds was determined by dilution method. The compounds were dissolved and then diluted using DMSO; two-fold serial concentrations of the compounds were employed to determine the MIC. In this method, the test concentrations of chemically synthesized compounds were made from 5 to 125 μg/mL.

[4] = test system: Bacillus subtilis (NCIM 2999); experiment: as above; format: cell-based; conditions: Bacillus subtilis, NCIM2999; B. subtilis; dilution method; average of three replicates; read-out: MIC
Procedure: as §1, §2

A. niger [5] = experiment: as above; format: cell-based; conditions: Aspergillus niger; A. niger; dilution method; average of three replicates; read-out: MIC
Procedure: [The procedure below names another organism; the source lists this organism under the same test.] as §1, §2

[6] = test system: Escherichia coli (NCIM 2574); experiment: as above; format: cell-based; conditions: Escherichia coli, NCIM2574; E. coli; dilution method; average of three replicates; read-out: MIC
Procedure: as §1, §2

[7] = test system: Aspergillus flavus (NCIM 524); experiment: as above; format: cell-based; conditions: Aspergillus flavus, NCIM524; A. flavus; dilution method; average of three replicates; read-out: MIC
Procedure: as §1, §2

[8] = test system: Staphylococcus aureus (NCIM 5021); experiment: as above; format: cell-based; conditions: Staphylococcus aureus, NCIM5021; S. aureus; dilution method; average of three replicates; read-out: MIC
Procedure: as §1, §2

[9] = test system: Pseudomonas aeruginosa (NCIM 5029); experiment: agar disc diffusion, zone of inhibition; format: cell-based; conditions: Pseudomonas aeruginosa, NCIM5029; P. aeruginosa; discs 6 mm, test compounds 100 µg/mL in DMSO, standards 10 µg/disc; 37°C 24 h; average of three replicates; read-out: zone of inhibition
Procedure: as §1
(§3) The antibacterial activity of compounds was determined by agar disc diffusion method. Briefly, a suspension of tested bacterial strains was spread on the nutrient agar medium and potato dextrose agar for fungi. The discs (6 mm in diameter) impregnated with test chemicals each dissolved in concentration (100 μg/mL in DMSO) were placed on the inoculated agar and these plates were kept at 4°C for 2 h. The plate was incubated at 37°C for 24 h in case of bacteria and 48 h at 28°C in case of fungi. streptomycin (10 μg/disc) and fluconazole (10 μg/disc) were used as the standards for antibacterial and antifungal activity, respectively. All the samples were performed in triplicate and the zone of inhibition was measured in millimeters.

[10] = test system: Bacillus subtilis (NCIM 2999); experiment: agar disc diffusion, zone of inhibition; format: cell-based; conditions: Bacillus subtilis, NCIM2999; B. subtilis; discs 6 mm, test compounds 100 µg/mL in DMSO, standards 10 µg/disc; 37°C 24 h; average of three replicates; read-out: zone of inhibition
Procedure: as §1, §3

A. niger [11] = experiment: agar disc diffusion, zone of inhibition; format: cell-based; conditions: Aspergillus niger; A. niger; discs 6 mm, test compounds 100 µg/mL in DMSO, standards 10 µg/disc; 28°C 48 h; average of three replicates; read-out: zone of inhibition
Procedure: [The procedure below names another organism; the source lists this organism under the same test.] as §1, §3

[12] = test system: Escherichia coli (NCIM 2574); experiment: agar disc diffusion, zone of inhibition; format: cell-based; conditions: Escherichia coli, NCIM2574; E. coli; discs 6 mm, test compounds 100 µg/mL in DMSO, standards 10 µg/disc; 37°C 24 h; average of three replicates; read-out: zone of inhibition
Procedure: as §1, §3

[13] = test system: Aspergillus flavus (NCIM 524); experiment: agar disc diffusion, zone of inhibition; format: cell-based; conditions: Aspergillus flavus, NCIM524; A. flavus; discs 6 mm, test compounds 100 µg/mL in DMSO, standards 10 µg/disc; 28°C 48 h; average of three replicates; read-out: zone of inhibition
Procedure: as §1, §3

[14] = test system: Staphylococcus aureus (NCIM 5021); experiment: agar disc diffusion, zone of inhibition; format: cell-based; conditions: Staphylococcus aureus, NCIM5021; S. aureus; discs 6 mm, test compounds 100 µg/mL in DMSO, standards 10 µg/disc; 37°C 24 h; average of three replicates; read-out: zone of inhibition
Procedure: as §1, §3

In the case of `CC(=O)N(C(=O)c1ccccc1C)c1ccc(N=Cc2cc3ccccc3o2)cc1` [Compound 5f, N-acetyl-N-(4-((benzofuran-2-ylmethylene)amino)phenyl)-2-methylbenzamide], the “IC50 Superoxide” value [1] is reported as 49 ± 0.17 µg/mL (≈ 124 µM), the “IC50 DPPH” value [2] is reported as 53 ± 0.04 µg/mL (≈ 134 µM) and the MIC [3] is reported as 100 µg/mL (≈ 252 µM). It also gave an MIC [4] of 50 µg/mL (≈ 126 µM), an MIC (A. niger [5]) of 100 µg/mL (≈ 252 µM) and an MIC [6] of 100 µg/mL (≈ 252 µM). It also gave an MIC [7] of 75 µg/mL (≈ 189 µM), an MIC [8] of 50 µg/mL (≈ 126 µM) and a melting point of 187 °C. It also gave a zone of inhibition at 100 µg/mL [9] of 10 mm, a zone of inhibition at 100 µg/mL [10] of 8 mm and a zone of inhibition at 100 µg/mL (A. niger [11]) of 12 mm. For the same compound, the zone of inhibition at 100 µg/mL [12] was 11 mm, the zone of inhibition at 100 µg/mL [13] was 10.2 mm and the zone of inhibition at 100 µg/mL [14] was 10 mm.
